For 22 compounds, IC50 results are on record in US20200405697A1, “Antitumor Agent” (Taiho Pharmaceutical Co., Ltd, priority 2017, published 2020).

The target of this assay is T1, human RNR (histidine tagged human M1 and human M2 proteins) (Homo sapiens, UniProt P23921).
T1 construct: made in house; host or cells: Escherichia coli
T1 sequence (P23921 1-792): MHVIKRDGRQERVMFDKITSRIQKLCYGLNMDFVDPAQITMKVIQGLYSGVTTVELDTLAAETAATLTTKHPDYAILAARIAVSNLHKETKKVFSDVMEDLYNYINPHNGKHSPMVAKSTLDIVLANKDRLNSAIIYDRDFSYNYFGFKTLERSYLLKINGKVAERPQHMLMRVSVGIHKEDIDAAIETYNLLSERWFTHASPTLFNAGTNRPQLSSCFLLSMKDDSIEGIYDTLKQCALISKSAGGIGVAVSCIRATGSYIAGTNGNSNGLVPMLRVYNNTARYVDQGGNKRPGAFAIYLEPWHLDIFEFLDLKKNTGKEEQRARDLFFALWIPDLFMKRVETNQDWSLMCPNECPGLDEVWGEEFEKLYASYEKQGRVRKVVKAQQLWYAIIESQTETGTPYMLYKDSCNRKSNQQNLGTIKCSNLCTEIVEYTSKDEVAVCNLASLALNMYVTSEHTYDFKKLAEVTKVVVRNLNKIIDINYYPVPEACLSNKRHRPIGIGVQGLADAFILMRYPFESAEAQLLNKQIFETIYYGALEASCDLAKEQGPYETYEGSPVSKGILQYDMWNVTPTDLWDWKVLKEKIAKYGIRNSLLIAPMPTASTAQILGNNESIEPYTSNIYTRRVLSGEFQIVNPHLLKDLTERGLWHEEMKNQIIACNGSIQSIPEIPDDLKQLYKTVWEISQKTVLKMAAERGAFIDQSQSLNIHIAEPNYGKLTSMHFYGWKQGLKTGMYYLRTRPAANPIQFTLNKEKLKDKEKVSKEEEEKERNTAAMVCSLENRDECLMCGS
The assay is described as follows: Human RNR inhibition effect (dCDP formation from CDP). It counts as biochemical. The conditions noted are these: 10 μM CDP, 37° C. for 30 minutes, read-out: RNR inhibitory activity IC50. The protocol: The inhibitory activity against the ribonucleotide reduction reaction (RNR inhibitory activity) of the Example compound was determined by measuring the formation of deoxycytidine diphosphate (hereinafter referred to as dCDP) from cytidine diphosphate (hereinafter referred to as CDP) by the following method.
Human M1 subunit (isoform 1, GenBank accession No: NM_001033), to which a histidine tag is fused at the amino terminus, and human M2 subunit (mutant lacking amino terminal 59 amino acids of isoform 2, GenBank accession No: NM_001034), to which a histidine tag is fused, were overexpressed in Escherichia coli and were solubilized after collection, and histidine tagged human M1 and histidine tagged human M2 proteins were purified on a nickel chelate column. A mixture of the histidine tagged human M1 and histidine tagged human M2 proteins was used as RNR in the ribonucleotide reduction reaction. [to]
First, Example compounds were serially diluted with DMSO. Next, human M1 protein and human M2 protein were added to a 0.02% aqueous albumin solution derived from fetal bovine serum, a DMSO solution of the Example compound or the control DMSO solution (final concentration of DMSO was 1%) was added, and the mixture was allowed to stand for 20 minutes. Thereafter, the reaction buffer [50 mM HEPES buffer (pH 7.2) at the final concentration, 4 mM magnesium acetate at the final concentration, 100 mM potassium chloride at the final concentration, 6 mM dithiothreitol at the final concentration, 2 mM adenosine triphosphate at the final concentration, 0.24 mM nicotinamide adenine dinucleotide phosphate at final concentration] and 10 μM CDP at the final concentration were added and incubated at 37° C. for 30 minutes to perform ribonucleotide reduction reaction. Immediately after the reaction, the reaction was stopped by heating at 100° C. for 15 minutes, followed by centrifugation at 10,000 rpm for 10 minutes. After the centrifugation, a portion (5 μL) of the resulting supernatant was analyzed with a high performance liquid chromatography (Shimadzu Corporation, Prominence) using Shim-pack XR-ODS (manufactured by Shimadzu GLC Co., 3.0×100 mm).
For the compound `COc1ccccc1-c1ccc(C(N)=O)c(S(=O)(=O)N[C@H](c2n[nH]c(=O)o2)[C@H](C)c2c(F)ccc(C)c2C)c1` [Example 345], the IC50 was 250 nM.
The result for `Cc1c(Br)ccc(F)c1[C@@H](C)[C@H](NS(=O)(=O)c1ccc(Cl)c2c1OCCC2(C)O)c1n[nH]c(=O)o1` (single isomer, unassigned) [Example 222B] reads 60 nM; that for `COc1cc(Cl)ccc1S(=O)(=O)N[C@H](c1n[nH]c(=O)o1)[C@H](C)c1c(F)ccc(-c2ccc(N3CCCCC3)nc2)c1C` [Example 320, 4-chloro-N-((1S,2R)-2-(6-fluoro-2-methyl-3-(6-(piperidin-1-yl)pyridin-3-yl)phenyl)-1-(5-oxo-4,5-dihydro-1,3,4-oxadiazol-2-yl)propyl)-2-methoxybenzenesulfonamide], 600 nM; that for `Cc1ccc(F)c([C@@H](C)[C@H](NS(=O)(=O)c2ccccc2C(=O)NO)c2n[nH]c(=O)o2)c1C` [Example 285, 2-(N-((1S,2R)-2-(6-fluoro-2,3-dimethylphenyl)-1-(5-oxo-4,5-dihydro-1,3,4-oxadiazol-2-yl)propyl)sulfamoyl)-N-hydroxybenzamide], 310 nM.
For the compound `Cc1ccc(F)c([C@@H](C)[C@H](NS(=O)(=O)c2ccc(C(F)(F)F)c3c2OCCC3O)c2n[nH]c(=O)o2)c1C` (single isomer, unassigned) [Example 244B], the IC50 was 220 nM.
`COc1cc(Cl)ccc1S(=O)(=O)N[C@H](c1n[nH]c(=O)o1)[C@H](C)c1cccc2c1CC(C)C2` (stereo partly drawn) [Example 67, 4-chloro-2-methoxy-N-((1S,2R)-2-(2-methyl-2,3-dihydro-1H-inden-4-yl)-1-(5-oxo-4,5-dihydro-1,3,4-oxadiazol-2-yl)propyl)benzenesulfonamide]: the IC50 was 700 nM.
For `Cc1ccc(F)c([C@@H](C)[C@H](NS(=O)(=O)c2ccc(Cl)cc2C(N)=O)c2n[nH]c(=O)o2)c1Cl` [Example 17, 5-chloro-2-(N-((1S)-2-(2-chloro-6-fluoro-3-methylphenyl)-1-(5-oxo-4,5-dihydro-1,3,4-oxadiazol-2-yl)propyl)sulfamoyl)benzamide], the IC50 was determined as 500 nM.
The result for `CC(=O)OC1(C(F)(F)F)CCOc2c1cccc2S(=O)(=O)N[C@H](c1n[nH]c(=O)o1)[C@H](C)c1c(F)ccc(C)c1C` (stereo partly drawn) [Example 106, 8-(N-((1S,2R)-2-(6-fluoro-2,3-dimethylphenyl)-1-(5-oxo-4,5-dihydro-1,3,4-oxadiazol-2-yl)propyl)sulfamoyl)-4-(tifluoromethyl)chroman-4-ylacetate] reads 270 nM.
In the case of `CNC(=O)c1nc(S(=O)(=O)N[C@H](c2n[nH]c(=O)o2)[C@H](C)c2c(F)ccc(C)c2C)ccc1Cl` [Example 252, 3-chloro-6-(N-((1S,2R)-2-(6-fluoro-2,3-dimethylphenyl)-1-(5-oxo-4,5-dihydro-1,3,4-oxadiazol-2-yl)propyl)sulfamoyl)-N-methylpicolinamide], the IC50 amounted to 60 nM.
Take `Cc1ccc(F)c([C@@H](C)[C@H](NS(=O)(=O)c2cc(C(C)(C)O)c(Cl)cc2C(N)=O)c2n[nH]c(=O)o2)c1C` [Example 198, 5-chloro-2-(N-((1S,2R)-2-(6-fluoro-2,3-dimethylphenyl)-1-(5-oxo-4,5-dihydro-1,3,4-oxadiazol-2-yl)propyl)sulfamoyl)-4-(2-hydroxypropan-2-yl)benzamide]: the IC50 was 60 nM.
Take `Cc1c(Cl)ccc(F)c1[C@@H](C)[C@H](NS(=O)(=O)c1ncc(Cl)cc1C(N)=O)c1n[nH]c(=O)o1` [Example 249, 5-chloro-2-(N-((1S,2R)-2-(3-chloro-6-fluoro-2-methylphenyl)-1-(5-oxo-4,5-dihydro-1,3,4-oxadiazol-2-yl)propyl)sulfamoyl)nitotinamide]: the IC50 was determined as 100 nM.
For `Cc1ccc(F)c([C@@H](C)[C@H](NS(=O)(=O)c2ccc(Cl)cc2OC(F)F)c2n[nH]c(=O)o2)c1C` [Example 146, 4-chloro-2-(difluoromethoxy)-N-((1S,2R)-2-(6-fluoro-2,3-dimethylphenyl)-1-(5-oxo-4,5-dihydro-1,3,4-oxadiazol-2-yl)propyl)benzenesulfonamide] the value was 260 nM.
For `Cc1ccc(F)c([C@@H](C)[C@H](NS(=O)(=O)c2ccc(Cl)c(C(=O)N3CCC4(COC4)C3)n2)c2n[nH]c(=O)o2)c1C` [Example 155, 5-chloro-N-((1S,2R)-2-(6-fluoro-2,3-dimethylphenyl)-1-(5-oxo-4,5-dihydro-1,3,4-oxadiazol-2-yl)propyl)-6-(2-oxa-6-aza-spiro[3.4]octane-6-carbonyl)pyridine-2-sulfonamide] the value was 130 nM; for `COc1cc(Cl)ccc1S(=O)(=O)N[C@H](c1n[nH]c(=O)o1)[C@H](C)c1cccc(C)c1C(C)C` [Example 85, 4-chloro-N-((1S,2R)-2-(2-isopropyl-3-methylphenyl)-1-(5-oxo-4,5-dihydro-1,3,4-oxadiazol-2-yl)propyl)-2-methoxybenzenesulfonamide], 840 nM; for `Cc1ccc(F)c([C@@H](C)[C@H](NS(=O)(=O)c2ccc(Cl)c(C(C)(C)O)n2)c2n[nH]c(=O)o2)c1C` [Example 193, 5-chloro-N-((1S,2R)-2-(6-fluoro-2,3-dimethylphenyl)-1-(5-oxo-4,5-dihydro-1,3,4-oxadiazol-2-yl)propyl)-6-(2-hydroxypropan-2-yl)pyridine-2-sulfonamide], 90 nM.
The result for `Cc1ccc(F)c([C@@H](C)[C@H](NS(=O)(=O)c2cccc3c2OCCC3(O)C(F)(F)F)c2n[nH]c(=O)o2)c1C` (stereo partly drawn) [Example 211A, N-((1S,2R)-2-(6-fluoro-2,3-dimethylphenyl)-1-(5-oxo-4,5-dihydro-1,3,4-oxadiazol-2-yl)propyl)-4-hydroxy-4-(trifluoromethyl)chroman-8-sulfonamide] reads 120 nM.
For `Cc1ccc(F)c([C@@H](C)[C@H](NS(=O)(=O)c2cccc3c2OC(C)(C)CC3O)c2n[nH]c(=O)o2)c1C` (single isomer, unassigned) [Example 237A], the IC50 was 290 nM.
Turning to `COc1cc(Cl)ccc1S(=O)(=O)N[C@H](c1n[nH]c(=O)o1)[C@H](C)c1c(F)ccc(-c2cnn(C3CC3)c2)c1C` [Example 311, 4-chloro-N-((1S,2R)-2-(3-(1-cyclopropyl-1H-pyrazol-4-yl)-6-fluoro-2-methylphenyl)-1-(5-oxo-4,5-dihydro-1,3,4-oxadiazol-2-yl)propyl)-2-methoxybenzenesulfonamide], the 50% inhibitory concentration (IC50) was 220 nM.
The result for `Cc1ccc(F)c([C@@H](C)[C@H](NS(=O)(=O)c2cccc3[nH]ccc23)c2n[nH]c(=O)o2)c1C` [Example 152, N-((1S,2R)-2-(6-fluoro-2,3-dimethylphenyl)-1-(5-oxo-4,5-dihydro-1,3,4-oxadiazol-2-yl)propyl)-1H-indole-4-sulfonamide] reads 710 nM; that for `COc1cc(Cl)ccc1S(=O)(=O)N[C@H](c1n[nH]c(=O)o1)[C@H](C)c1c(F)ccc(-c2cn(C)nc2C)c1C` [Example 317, 4-chloro-N-((1S,2R)-2-(3-(1,3-dimethyl-1H-pyrazol-4-yl)-6-fluoro-2-methylphenyl)-1-(5-oxo-4,5-dihydro-1,3,4-oxadiazol-2-yl)propyl)-2-methoxybenzenesulfonamide], 280 nM.
As to `Cc1c(Br)ccc(F)c1[C@@H](C)[C@H](NS(=O)(=O)c1ccc(Cl)c2c1OCCC2O)c1n[nH]c(=O)o1` (single isomer, unassigned) [Example 243B], the IC50 was 100 nM.
`Cc1cccc(F)c1[C@@H](C)[C@H](NS(=O)(=O)c1ccc(Cl)cc1C(N)=O)c1n[nH]c(=O)o1` [Example 22, 5-chloro-2-(N-((1S,2R)-2-(2-fluoro-6-methylphenyl)-1-(5-oxo-4,5-dihydro-1,3,4-oxadiazol-2-yl)propyl)sulfamoyl)benzamide]: the half-maximal inhibitory concentration (IC50) was 340 nM.
